Where “and” joins values, the source holds several entries; their conditions need not be identical. Identical values can stand only once.
Experiments:
[1] = Functional assay to measure dose dependent changes in cell viability from drug treatment in Vero E6 miRFP670 cells (cotreated with P-gp inhibitor, CP100356) that are infected with Dengue virus type 2 New Guinea C. […] Cytotoxicity is reported via via analysis of DAPI count using high-content imager. The assay has been performed by KU Leuven.; format: toxicity, cell-based, Vero C1008; conditions: chlorocebus sabaeus, with CP100356 (P-gp inhibitor, concentration not stated); p-gp concentration 500 nM
[2] = Functional metabolic assay to measure dose dependent changes in cell viability from drug treatment in Vero E6/TMPRSS2 cells (cotreated with P-gp inhibitor, Elacridar). […] Cytotoxicity is reported via measuring absorbance and analysis of MTT/MTS assays in uninfected cells. The assay has been performed by Icahn School of Medicine at Mount Sinai.; format: toxicity, cell-based, VeroE6/TMPRSS2; conditions: chlorocebus sabaeus, p-gp concentration 2 uM
[3] = Vero E6/TMPRSS2 cells, with Elacridar (P-gp inhibitor, concentration not stated)

SMILES: CNC(=O)[C@H](Nc1cc(Cl)cc(NC(=O)OCc2ccccc2)c1)c1cccc(CN)c1
- CC50 [1]: 24.2 µM

SMILES: NCc1cccc(NC(=O)[C@@H](NC(=O)OCc2ccccc2)c2ccc(Br)c(Cl)c2)c1
- CC50 [2, 3]: 8.15 µM
- CC10 ([2]; veroe6/tmprss2): 0.556 µM

SMILES: N#C[C@H](Nc1cc(Cl)cc(NC(=O)OCc2ccccc2)c1)c1ccc(-c2nn[nH]n2)cc1
- CC50 [1]: 13 µM

SMILES: O=C(Nc1cc(Cl)cc(CNc2cccc(-c3nn[nH]n3)c2)c1)OCc1ccccc1
- CC50 [1]: > 50 µM

SMILES: N#Cc1cc(Cl)cc([C@H](C#N)Nc2ccc3c(c2)CNC3)c1
- CC50 [2, 3]: > 50 µM
- CC10 ([2]; veroe6/tmprss2): > 50 µM

SMILES: CC(=Cc1cc(Cl)cc(NC(=O)OCc2ccccc2)c1)c1cccc(CN)c1
- CC50 [1]: 0.906 µM

SMILES: O=C(O)Cn1ncc2cc(-c3cc(Cl)cc(NC(=O)OCc4ccccc4)c3)ccc21
- CC50 [1]: > 50 µM

SMILES: NCc1cccc(CNC(=O)[C@@H](NC(=O)OCc2ccccc2)c2ccc(OCc3ccccc3)cc2)c1
- CC50 [1]: 1.9 µM

SMILES: CC[C@H](Cc1nnn[nH]1)c1ccc(NC(=O)[C@H]2[C@H]3CCCCC[C@H]3[C@H]2NC(=O)OCc2ccccc2)cc1
- CC50 [2, 3]: > 50 µM
- CC10 ([2]; veroe6/tmprss2): > 50 µM

SMILES: Cc1ccc(-c2nnn[nH]2)cc1NC(=O)c1cc(Cl)cc(NC(=O)OCc2ccccc2)c1
- CC50 [2, 3]: > 50 µM
- CC10 ([2]; veroe6/tmprss2): > 50 µM

SMILES: NCc1ccc([C@H]2C[C@@H]2c2cc(Cl)cc(NC(=O)OCc3ccccc3)c2)cc1
- CC50 [1]: 3.51 µM

SMILES: O=C(Nc1cc(Cl)cc(C(=O)Nc2ccc3c(c2)CNCCO3)c1)OCc1ccccc1
- CC50 [2, 3]: > 50 µM
- CC10 ([2]; veroe6/tmprss2): < 0.023 µM

SMILES: NCc1cccc([C@@H]2C[C@H]2c2cc(Cl)cc(NC(=O)OCc3ccccc3)c2)c1
- CC50 [2, 3]: > 50 µM
- CC10 ([2]; veroe6/tmprss2): > 50 µM

SMILES: O=C(Nc1cc(Cl)cc(C(=O)Nc2cc(Br)cc(-c3nnn[nH]3)c2)c1)OCc1ccccc1
- CC50 [2, 3]: > 50 µM
- CC10 ([2]; veroe6/tmprss2): > 50 µM

SMILES: O=C(Nc1cc(Cl)cc(C(=O)Nc2cc(-c3nnn[nH]3)ccc2F)c1)OCc1ccccc1
- CC50 [2, 3]: > 50 µM
- CC10 ([2]; veroe6/tmprss2): > 50 µM

SMILES: NCc1cccc(NC(=O)C[C@H](NC(=O)OCc2ccccc2)c2ccc(OCc3ccccc3)c(Br)c2)c1
- CC50 [2, 3]: 38.4 µM
- CC10 ([2]; veroe6/tmprss2): 0.148 µM

SMILES: C=CC[C@H](Nc1cccc(-c2nn[nH]n2)c1)c1cc(Cl)cc2[nH]ncc12
- CC50 [2, 3]: > 5 µM
- CC10 ([2]; veroe6/tmprss2): > 5 µM

SMILES: Cc1ccc2cc(Cl)cc(C(=O)Nc3ccc4c(c3)CNC4)c2n1
- CC50 [2, 3]: 31.3 µM
- CC10 ([2]; veroe6/tmprss2): 2.835 µM

SMILES: C=CC[C@H](Nc1cccc(-c2nn[nH]n2)c1)c1cc(Cl)cc(NC(=O)OCc2ccccc2)c1
- CC50 [1]: 6.9 µM

SMILES: NCc1cccc(NC(=O)[C@H]2[C@H]3CCCCC[C@H]3[C@H]2NC(=O)OCc2ccccc2)c1
- CC50 [2, 3]: 10.3 µM
- CC10 ([2]; veroe6/tmprss2): 0.166 µM

SMILES: CCOc1cccc(-c2ccc(S(=O)(=O)Nc3cc4c(cc3C(=O)O)CCC4)cc2)c1
- CC50 [2, 3]: > 50 µM
- CC10 ([2]; veroe6/tmprss2): 5.671 µM

SMILES: O=S(=O)(Nc1cccc(-c2nnn[nH]2)c1)c1cc(Cl)cc(-c2ccccc2)c1
- CC50 [2, 3]: > 50 µM
- CC10 ([2]; veroe6/tmprss2): > 50 µM

SMILES: O=C(Nc1ccc2c(c1)CNC2)c1cc(Cl)ccc1SC1CCCC1
- CC50 [2, 3]: > 50 µM
- CC10 ([2]; veroe6/tmprss2): 41.64 µM

SMILES: Cc1ccc(S(=O)(=O)CNC(=O)[C@H](Nc2ccc3c(c2)CNC3)c2cc(Cl)cc3[nH]ncc23)cc1
- CC50 [2, 3]: > 50 µM
- CC10 ([2]; veroe6/tmprss2): > 50 µM

SMILES: CNC(=O)[C@H](Nc1cc(Cl)cc(NC(=O)OCc2ccccc2)c1)c1cccc(-c2nn[nH]n2)c1
- CC50 [2, 3]: > 50 µM
- CC10 ([2]; veroe6/tmprss2): > 50 µM

SMILES: CC[C@H](Cc1nn[nH]n1)c1ccc(N[C@H](C(=O)NC)c2cc(Cl)cc(NC(=O)OCc3ccccc3)c2)cc1
- CC50 [2, 3]: > 50 µM
- CC10 ([2]; veroe6/tmprss2): > 50 µM

SMILES: NCc1ccc(F)c(NC(=O)c2cc(Cl)cc(NC(=O)OCc3ccccc3)c2)c1
- CC50 [2, 3]: > 50 µM
- CC10 ([2]; veroe6/tmprss2): > 50 µM

SMILES: CC[C@H](Cc1nnn[nH]1)c1ccc(NC(=O)c2cc(Cl)cc(C3CC3)c2)cc1
- CC50 [2, 3]: > 50 µM
- CC10 ([2]; veroe6/tmprss2): > 50 µM

SMILES: CC[C@H](Cc1nnn[nH]1)c1ccc(NC(=O)c2cc(Cl)cc(-n3cccc3)c2)cc1
- CC50 [2, 3]: > 50 µM
- CC10 ([2]; veroe6/tmprss2): > 50 µM

SMILES: O=C(Nc1cc(Cl)cc(S(=O)(=O)Nc2cccc(-c3nn[nH]n3)c2)c1)OCc1ccccc1
- CC50 [2, 3]: > 50 µM
- CC10 ([2]; veroe6/tmprss2): > 50 µM

SMILES: NCc1ccc2c(c1)[C@H]1OCCC[C@H]1[C@H](c1cc(Cl)cc(NC(=O)OCc3ccccc3)c1)N2
- CC50 [1]: 5.8 µM

SMILES: CCCCCC(=O)N[C@H](C(=O)NCc1ccc(N)nc1)c1ccc(OCc2ccccc2)cc1
- CC50 [1]: 3.63 µM

SMILES: O=C(Nc1cc(Cl)cc(C(=O)Nc2ccc3c(c2)CCNC3)c1)OCc1ccccc1
- CC50 [1]: 2.91 µM

SMILES: CC(=Cc1cccc(CN)c1)c1cc(Cl)cc(NC(=O)OCc2ccccc2)c1
- CC50 [1]: 3.26 µM

SMILES: O=C(Nc1cc(Cl)cc(N[C@H](C#CCO)c2ccc(-c3nn[nH]n3)cc2)c1)OCc1ccccc1
- CC50 [2, 3]: > 50 µM
- CC10 ([2]; veroe6/tmprss2): > 50 µM

SMILES: O=C(Nc1ccc2c(c1)CNC2)c1cc(Br)cc2[nH]c(C3CCOCC3)nc12
- CC50 [2, 3]: 27.8 µM
- CC10 ([2]; veroe6/tmprss2): 3.442 µM

SMILES: CCOC(=O)[C@H]1[C@H](c2cc(Cl)cc(NC(=O)OCc3ccccc3)c2)[C@H]1c1cccc(-c2nnn[nH]2)c1
- CC50 [2, 3]: > 50 µM
- CC10 ([2]; veroe6/tmprss2): > 50 µM

SMILES: C[C@@]1(O)[C@H](O)[C@@H](CO)O[C@H]1n1ccc(N)nc1=O
- CC50 [1]: > 200 µM

SMILES: O=C(O)c1cc(Cl)ccc1S(=O)(=O)NC1CCN(c2nc(C3CC3)cc(C(F)(F)F)n2)CC1
- CC50 ([2]; veroe6/tmprss2): > 10 µM and 49.7 µM

SMILES: O=C(O)CCc1ccc(NC(=O)c2cc(Cl)cc(NC(=O)OCc3ccccc3)c2)cc1
- CC50 [2, 3]: > 50 µM
- CC10 ([2]; veroe6/tmprss2): > 50 µM

SMILES: NCc1cccc(NC(=O)c2cc(Cl)cc3c2CCC3)c1
- CC50 ([2]; veroe6/tmprss2): > 50 µM

SMILES: Clc1cccc([C@H](C#Cc2ccccc2)Nc2cccc(-c3nn[nH]n3)c2)c1
- CC50 [1]: 6.84 µM

SMILES: CN(C)C(=O)c1cc(CN)cc([C@@H]2C[C@H]2c2cc(Cl)cc(NC(=O)OCc3ccccc3)c2)c1
- CC50 [1]: 4.09 µM

SMILES: CNC(=O)[C@H](Nc1cccc(CN)c1)c1cc(Cl)cc(NC(=O)OCc2ccccc2)c1
- CC50 [1]: 23.7 µM

SMILES: NCCCc1ccnc(NC(=O)c2cc(Cl)cc(NC(=O)OCc3ccccc3)c2)c1
- CC50 [2, 3]: 16.2 µM
- CC10 ([2]; veroe6/tmprss2): 2.116 µM

SMILES: O=C(Nc1cc(Cl)cc([C@H](C#CCO)Nc2ccc(-c3nn[nH]n3)cc2)c1)OCc1ccccc1
- CC50 [1]: > 50 µM

SMILES: N#Cc1cc(Cl)cc(C(=O)Nc2ccc3c(c2)CNC3)c1
- CC50 [2, 3]: > 50 µM
- CC10 ([2]; veroe6/tmprss2): > 50 µM

SMILES: c1ccc2c(CN3CCC(c4cscn4)CC3)c[nH]c2c1
- CC50 ([2]; veroe6/tmprss2): > 50 µM

SMILES: C=CC[C@H](Nc1cc(Cl)cc(NC(=O)OCc2ccccc2)c1)c1cccc(CN)c1
- CC50 [1]: 3.34 µM

SMILES: CC(=O)Nc1cc(Cl)cc(C(=O)Nc2cccc(CN)c2)c1
- CC50 [2, 3]: > 50 µM
- CC10 ([2]; veroe6/tmprss2): > 50 µM

SMILES: O=C(NCC1CCOCC1)[C@H](Nc1ccc2c(c1)CNC2)c1cc(Cl)cc2[nH]ncc12
- CC50 [2, 3]: > 50 µM
- CC10 ([2]; veroe6/tmprss2): > 50 µM

SMILES: CNC(=O)c1cc(Cl)c(F)cc1NS(=O)(=O)c1ccc(Oc2ccccc2Cl)cc1
- CC50 [1]: 5.65 µM

SMILES: COc1ccc(CCNc2nc(N3CCc4cc(OC)c(OC)cc4C3)c3cc(OC)c(OC)cc3n2)cc1OC
- CC10 ([2]; veroe6/tmprss2): < 0.005 µM

SMILES: O=C(Nc1cc(Cl)cc(C(=O)Nc2ccc([C@@H]3C[C@H]3C(=O)O)cc2)c1)OCc1ccccc1
- CC50 [1]: 21.1 µM

SMILES: N#C[C@H](Nc1cccc(-c2nn[nH]n2)c1)c1cc(Cl)cc(NC(=O)OCc2ccccc2)c1
- CC50 [2, 3]: > 50 µM
- CC10 ([2]; veroe6/tmprss2): > 50 µM

SMILES: NCc1cccc(NC(=O)c2cc(Cl)cc(N3CCCC3=O)c2)c1
- CC50 ([2]; veroe6/tmprss2): > 50 µM

SMILES: O=C(Nc1cnc2c(c1)CNCC2)c1cc(Cl)cc2[nH]ncc12
- CC50 [2, 3]: > 50 µM
- CC10 ([2]; veroe6/tmprss2): > 50 µM

SMILES: CCCC(=O)Nc1cc(Cl)cc(C(=O)Nc2cccc(CN)c2)c1
- CC50 [2, 3]: > 50 µM
- CC10 ([2]; veroe6/tmprss2): > 50 µM

SMILES: C[C@@H](N)c1cccc(NC(=O)[C@H]2[C@H]3CCCCC[C@H]3[C@H]2NC(=O)OCc2ccccc2)c1
- CC50 [2, 3]: > 50 µM
- CC10 ([2]; veroe6/tmprss2): 0.044 µM

SMILES: NCc1cccc(NC(=O)c2cc(Cl)cc(NC(=O)OCc3ccccc3)c2)c1
- CC50 ([2]; veroe6/tmprss2): > 10 µM and 18.5 µM and 30.7 µM

SMILES: N[C@H]1CC[C@H](c2ccc(NC(=O)c3cc(Cl)cc(NC(=O)OCc4ccccc4)c3)cc2)C1
- CC50 [1]: 2.84 µM

SMILES: CCc1cc(Cl)cc(C(=O)Nc2ccc3c(c2)CNC3)c1
- CC50 [2, 3]: > 50 µM
- CC10 ([2]; veroe6/tmprss2): 10.908 µM

SMILES: CCOc1cccc(-c2ccc(S(=O)(=O)Nc3ccc(Cl)cc3C(=O)O)cc2)c1
- CC50 ([2]; veroe6/tmprss2): > 50 µM

SMILES: O=C(Nc1cc(Cl)cc([C@H]2C[C@@H]2c2cccc(-c3nnn[nH]3)c2)c1)OCc1ccccc1
- CC50 [1]: 16.3 µM

SMILES: NCc1cccc(NC(=O)c2cc(Cl)cc(CN)c2)c1
- CC50 ([2]; veroe6/tmprss2): > 50 µM

SMILES: O=C(Nc1cc(Cl)cc(C(=O)Nc2cccc([C@H]3CCNC3)c2)c1)OCc1ccccc1
- CC50 [2, 3]: 20.1 µM
- CC10 ([2]; veroe6/tmprss2): 2.776 µM

SMILES: CCOC(=O)Nc1cc(Cl)cc(C(=O)Nc2cccc(CN)c2)c1
- CC50 [2, 3]: > 50 µM
- CC10 ([2]; veroe6/tmprss2): > 50 µM

— ChEMBL document CHEMBL5661955, “ASAP - In vitro cytotoxicity” (2024)
